Test results: PubChem BioAssay AID1259411 (Chemical Carcinogenesis Research Information System (CCRIS), 2018)
The source made the active and inactive calls. The rule behind the calls is not given here.

Test system: rodent carcinogenicity bioassays, tumor incidence
Assay: CCRIS carcinogenicity studies
Description: The CCRIS database contains chemical records with carcinogenicity, mutagenicity, tumor promotion, and tumor inhibition test results. It was developed by the National Cancer Institute (NCI). Data are derived from studies cited in primary journals, current awareness tools, NCI reports, and other sources. Test results have been reviewed by experts in carcinogenesis and mutagenesis.
CCRIS provides historical information from the years 1985 - 2011. It is no longer updated.
This is an archive assay for CCRIS carcinogenicity studies.

For `O=C(O)CCCc1ccc(N(CCCl)CCCl)cc1`, the carcinogen call (Species: HUMAN, Route: ORAL, Tumor Site: Type of Lesion: HEMATOPOIETIC SYSTEM (LEUKEMIA)) was “active; positive”, the carcinogen call (Species: MOUSE, Strain/Sex: BALB/FEMALE, Route: INTRAGASTRIC, Dose: 0, 1 MG/KG SUSPENDED IN WATER 5/WK FOR 12 WK (STUDY DURATION: 120 WK), Tumor Site: Type of Lesion: LUNG: ADENOMA) was “active; positive” and the carcinogen call (Species: MOUSE, Strain/Sex: BALB/FEMALE, Route: INTRAGASTRIC, Dose: 0, 1 MG/KG SUSPENDED IN WATER 5/WK FOR 12 WK (STUDY DURATION: 120 WK), Tumor Site: Type of Lesion: LYMPHORETICULAR SYSTEM: TUMOR) was “active; positive”. The carcinogen call (Species: MOUSE, Strain/Sex: BALB/FEMALE, Route: INTRAGASTRIC, Dose: 0, 1 MG/KG SUSPENDED IN WATER 5/WK FOR 12 WK (STUDY DURATION: 120 WK), Tumor Site: Type of Lesion: MAMMARY GLAND: ADENOMA OR ADENOCANTHOMA) was “active; positive”, the carcinogen call (Species: MOUSE, Strain/Sex: BALB/MALE, Route: INTRAGASTRIC, Dose: 0, 1 MG/KG SUSPENDED IN WATER 5/WK FOR 12 WK (STUDY DURATION: 120 WK), Tumor Site: Type of Lesion: LUNG: ADENOMA) was “active; positive” and the carcinogen call (Species: MOUSE, Strain/Sex: BALB/MALE, Route: INTRAGASTRIC, Dose: 0, 1 MG/KG SUSPENDED IN WATER 5/WK FOR 12 WK (STUDY DURATION: 120 WK), Tumor Site: Type of Lesion: LYMPHORETICULAR SYSTEM: TUMOR) was “active; positive”. The carcinogen call (Species: MOUSE, Strain/Sex: STRAIN-A/MALE,FEMALE, Route: INTRAPERITONEAL, Dose: 9.6, 37, 150, 420 MG/KG (TOTAL DOSES) IN 0.5% ACACIA OR 0.01% TRICAPRYLIN SOLN 3/WK FOR 4 WK, Dose: 9.6, 37, 150, 420 MG/KG (TOTAL DOSES) IN 0.5% ACACIA OR 0.01% TRICAPRYLIN SOLN 3/WK FOR 4 WK, Tumor Site: Type of Lesion: LUNG: ADENOMA, ADENOCARCINOMA) was “active; positive”, the carcinogen call (Species: MOUSE, Strain/Sex: SWISS/FEMALE, Route: INTRAPERITONEAL, Dose: 1.5, 3.0 MG/KG 3/WK FOR 6 MO, Tumor Site: Type of Lesion: LUNG: ADENOMA, LYMPHATIC SYSTEM: LYMPHOSARCOMA, OVARIES, Tumor Site: Type of Lesion: LUNG: ADENOMA, LYMPHATIC SYSTEM: LYMPHOSARCOMA, OVARIES) was “active; positive” and the carcinogen call (Species: MOUSE, Strain/Sex: SWISS/MALE, Route: INTRAPERITONEAL, Dose: 1.5, 3.0 MG/KG 3/WK FOR 6 MO, Tumor Site: Type of Lesion: HEMATOPOIETIC SYSTEM (LEUKEMIA), LYMPHATIC SYSTEM: LYMPHOSARCOMA, LUNG: ADENOMA, Tumor Site: Type of Lesion: HEMATOPOIETIC SYSTEM (LEUKEMIA), LYMPHATIC SYSTEM: LYMPHOSARCOMA, LUNG: ADENOMA) was “active; positive”. For the same molecule, the carcinogen call (Species: RAT, Strain/Sex: CD-1/MALE, Route: INTRAPERITONEAL, Dose: 2.2, 4.5 MG/KG 3/WK FOR 6 MO, Tumor Site: Type of Lesion: HEMATOPOIETIC SYSTEM (LEUKEMIA), LYMPHATIC SYSTEM: LYMPHOSARCOMA, RETICULAR CELL SARCOMA) was “active; positive” and the carcinogen call (Species: RAT, Strain/Sex: SPRAGUE-DAWLEY/FEMALE, Route: GAVAGE, Dose: 0, 3 MG/KG ADMINISTERED 1, 2, 4.5 OR 9 TIMES PER MO FOR 18 MO TO GIVE MEDIAN TOTAL DOSES OF 54, 108, 234, 425 MG/KG (STU, Dose: 0, 3 MG/KG ADMINISTERED 1, 2, 4.5 OR 9 TIMES PER MO FOR 18 MO TO GIVE MEDIAN TOTAL DOSES OF 54, 108, 234, 425 MG/KG (STU, Tumor Site: Type of Lesion: MAMMARY GLAND: TUMOR, NERVOUS SYSTEM: TUMOR, EAR CANAL: TUMOR, Tumor Site: Type of Lesion: MAMMARY GLAND: TUMOR, NERVOUS SYSTEM: TUMOR, EAR CANAL: TUMOR) was “active; positive”.

For `CN(CCCC(O)c1cccnc1)N=O` (stereo not drawn), the carcinogen call (Species: MOUSE, Strain/Sex: STRAIN-A/FEMALE, Route: INTRAPERITONEAL, Dose: 0, 10, 50 UMOL TOTAL DOSE ADMINISTERED IN SUBDOSES 3/WK FOR 7 WK (STUDY DURATION: 37 WK), Dose: 0, 10, 50 UMOL TOTAL DOSE ADMINISTERED IN SUBDOSES 3/WK FOR 7 WK (STUDY DURATION: 37 WK), Tumor Site: Type of Lesion: LUNG: TUMOR) was “active; positive” and the carcinogen call (Species: RAT, Strain/Sex: F344/MALE, Route: ORAL, Dose: 0, 5 PPM IN DRINKING WATER FOR DURATION OF STUDY (TOTAL DOSE: 0; 0.69 MMOL/KG) (STUDY DURATION: 112 WK), Dose: 0, 5 PPM IN DRINKING WATER FOR DURATION OF STUDY (TOTAL DOSE: 0; 0.69 MMOL/KG) (STUDY DURATION: 112 WK), Tumor Site: Type of Lesion: LUNG: ADENOCARCINOMA, ADENOSQUAMOUS CARCINOMA, EXOCRINE PANCREAS: ACINAR ADENOMA OR ACINAR ADENOCARCINOMA OR DUCTAL ADEN) was “active; positive”.

With `O=C(O)c1ccc(N=Nc2ccc(O)c(C(=O)O)c2)cc1` the carcinogen call (Species: MOUSE, Strain/Sex: NMRI/FEMALE, Route: ORAL, Dose: 0, 100, 300, 900 MG/KG BW/D IN DIET FOR 107 WK (HIGH DOSE INCREASED TO 1800 MG/KG BW FROM WK 21) (STUDY DURATION: 107 WK, Dose: 0, 100, 300, 900 MG/KG BW/D IN DIET FOR 107 WK (HIGH DOSE INCREASED TO 1800 MG/KG BW FROM WK 21) (STUDY DURATION: 107 WK) was “inactive; negative”, the carcinogen call (Species: MOUSE, Strain/Sex: NMRI/MALE, Route: ORAL, Dose: 0, 100, 300, 900 MG/KG BW/D IN DIET FOR 120 WK (HIGH DOSE INCREASED TO 1800 MG/KG BW FROM WK 21) (STUDY DURATION: 120 WK, Dose: 0, 100, 300, 900 MG/KG BW/D IN DIET FOR 120 WK (HIGH DOSE INCREASED TO 1800 MG/KG BW FROM WK 21) (STUDY DURATION: 120 WK) was “inactive; negative” and the carcinogen call (Species: RAT, Strain/Sex: SPRAGUE-DAWLEY/MALE, Route: ORAL, Dose: 0, 300, 900, 2700 MG/KG BW/D IN DIET FOR 118 WK (HIGH DOSE REDUCED TO 1800 MG/KG BW FROM WK 68) (STUDY DURATION: 118 WK), Dose: 0, 300, 900, 2700 MG/KG BW/D IN DIET FOR 118 WK (HIGH DOSE REDUCED TO 1800 MG/KG BW FROM WK 68) (STUDY DURATION: 118 WK)) was “inactive; negative”. For the same molecule, the carcinogen call (Species: RAT, Strain/Sex: SPRAGUE/DAWLEY/FEMALE, Route: ORAL, Dose: 0, 300, 900, 2700 MG/KG BW/D IN DIET FOR 119 WK (HIGH DOSE REDUCED TO 1800 MG/KG BW FROM WK 68) (STUDY DURATION: 119 WK), Dose: 0, 300, 900, 2700 MG/KG BW/D IN DIET FOR 119 WK (HIGH DOSE REDUCED TO 1800 MG/KG BW FROM WK 68) (STUDY DURATION: 119 WK)) was “inactive; negative”.

With `C=CCc1ccc(O)c(OC)c1` the carcinogen call (Species: MOUSE, Strain/Sex: B6C3F1/FEMALE, Route: ORAL, Dose: 0, 3000, 6000 PPM IN DIET FOR 103 WK (STUDY DURATION: 103 WK), Dose: 0, 3000, 6000 PPM IN DIET FOR 103 WK (STUDY DURATION: 103 WK), Tumor Site: Type of Lesion: LIVER: HEPATOCELLULAR ADENOMA OR CARCINOMA) was “equivocal”, the carcinogen call (Species: MOUSE, Strain/Sex: B6C3F1/MALE, Route: ORAL, Dose: 0, 3000, 6000 PPM IN DIET FOR 103 WK (STUDY DURATION: 103 WK), Dose: 0, 3000, 6000 PPM IN DIET FOR 103 WK (STUDY DURATION: 103 WK), Tumor Site: Type of Lesion: LIVER: HEPATOCELLULAR ADENOMA, HEPATOCELLULAR CARCINOMA) was “equivocal” and the carcinogen call (Species: RAT, Strain/Sex: F344/FEMALE, Route: ORAL, Dose: 0, 6000, 12500 PPM IN DIET FOR 103 WK (STUDY DURATION: 103 WK), Dose: 0, 6000, 12500 PPM IN DIET FOR 103 WK (STUDY DURATION: 103 WK)) was “inactive; negative”. The carcinogen call (Species: RAT, Strain/Sex: F344/MALE, Route: ORAL, Dose: 0, 3000, 6000 PPM IN DIET FOR 103 WK (STUDY DURATION: 103 WK), Dose: 0, 3000, 6000 PPM IN DIET FOR 103 WK (STUDY DURATION: 103 WK)) was “inactive; negative”.

`N#[N+]c1ccc(CO)cc1` was tested, and the carcinogen call (Species: MOUSE, Strain/Sex: SWISS/FEMALE, Route: SUBCUTANEOUS, Dose: 0, 50 UG/G BW IN 0.01 ML 0.9% SALINE 1/WK FOR 26 WK (STUDY DURATION: 140 WK), Tumor Site: Type of Lesion: SUBCUTIS: TUMOR, SKIN: TUMOR) was “active; positive” and the carcinogen call (Species: MOUSE, Strain/Sex: SWISS/MALE, Route: SUBCUTANEOUS, Dose: 0, 50 UG/G BW IN 0.01 ML 0.9% SALINE 1/WK FOR 26 WK (STUDY DURATION: 140 WK), Tumor Site: Type of Lesion: SUBCUTIS: TUMOR, SKIN: TUMOR) was “active; positive”.
